Assay results from ChEMBL document CHEMBL1135741, “Synthesis and biological evaluation of analogues of the peptaibol ampullosporin A” (J Med Chem, 2002).
Where a SMILES comes first, the peptide text is derived from it. [ ]: non-standard residue; d: D form. ξ: configuration not given here. Oic(3aξ,7aξ) = O=C(O)[C@@H]1CC2CCCCC2N1; 2Nal = N[C@@H](Cc1ccc2ccccc2c1)C(=O)O; Igl = N[C@H](C(=O)O)C1Cc2ccccc2C1; Tic = O=C(O)[C@@H]1Cc2ccccc2CN1; Leu(ol) = CC(C)C[C@H](N)CO; Aib = CC(C)(N)C(=O)O

Assays:
Mus musculus = organism: Mus musculus; assay: Evaluated for its ability to modify the core body temperature of mice; No activity; assay type: functional, organism-based
[1] = tested on: Remotididymella destructiva; assay: Evaluated for pigment induction capacity based on the Phoma destructiva halo color; No activity; assay type: functional, organism-based

Structure (SMILES) | NA (Mus musculus) | NA [1]
CC(=O)N[C@H](C(=O)N[C@@H](C)C(=O)NC(C)(C)C(=O)NC(C)(C)C(=O)N[C@@H](CC(C)C)C(=O)NC(C)(C)C(=O)N[C@@H](CCC(N)=O)C(=O)NC(C)(C)C(=O)NC(C)(C)C(=O)NC(C)(C)C(=O)N[C@@H](CCC(N)=O)C(=O)N[C@@H](CC(C)C)C(=O)NC(C)(C)C(=O)N[C@@H](CCC(N)=O)C(=O)N[C@H](CO)CC(C)C)C1Cc2ccccc2C1 (Ac-[Igl]A[Aib][Aib]L[Aib]Q[Aib][Aib][Aib]QL[Aib]Q[Leu(ol)]) | No activity | –
CC(=O)N[C@@H](Cc1c[nH]c2ccccc12)C(=O)N[C@@H](C)C(=O)NC(C)(C)C(=O)NC(C)(C)C(=O)N[C@@H](CC(C)C)C(=O)NC(C)(C)C(=O)N[C@@H](CCC(N)=O)C(=O)NC(C)(C)C(=O)NC(C)(C)C(=O)NC(C)(C)C(=O)N[C@@H](CCC(N)=O)C(=O)N[C@@H](CC(C)C)C(=O)NC(C)(C)C(=O)N[C@@H](CCC(N)=O)C(=O)O (Ac-WA[Aib][Aib]L[Aib]Q[Aib][Aib][Aib]QL[Aib]Q-OH) | No activity | No activity
CC(=O)N1Cc2ccccc2C[C@H]1C(=O)N[C@@H](C)C(=O)NC(C)(C)C(=O)NC(C)(C)C(=O)N[C@@H](CC(C)C)C(=O)NC(C)(C)C(=O)N[C@@H](CCC(N)=O)C(=O)NC(C)(C)C(=O)NC(C)(C)C(=O)NC(C)(C)C(=O)N[C@@H](CCC(N)=O)C(=O)N[C@@H](CC(C)C)C(=O)NC(C)(C)C(=O)N[C@@H](CCC(N)=O)C(=O)N[C@H](CO)CC(C)C (Ac-[Tic]A[Aib][Aib]L[Aib]Q[Aib][Aib][Aib]QL[Aib]Q[Leu(ol)]) | No activity | –
CC(=O)N[C@@H](Cc1c[nH]c2ccccc12)C(=O)N[C@@H](C)C(=O)NC(C)(C)C(=O)NC(C)(C)C(=O)N[C@@H](CC(C)C)C(=O)N[C@@H](C)C(=O)N[C@@H](CCC(N)=O)C(=O)NC(C)(C)C(=O)NC(C)(C)C(=O)NC(C)(C)C(=O)N[C@@H](CCC(N)=O)C(=O)N[C@@H](CC(C)C)C(=O)NC(C)(C)C(=O)N[C@@H](CCC(N)=O)C(=O)N[C@H](CO)CC(C)C (Ac-WA[Aib][Aib]LAQ[Aib][Aib][Aib]QL[Aib]Q[Leu(ol)]) | No activity | –
CC(=O)N[C@@H](Cc1ccc2ccccc2c1)C(=O)N[C@@H](C)C(=O)NC(C)(C)C(=O)NC(C)(C)C(=O)N[C@@H](CC(C)C)C(=O)NC(C)(C)C(=O)N[C@@H](CCC(N)=O)C(=O)NC(C)(C)C(=O)NC(C)(C)C(=O)NC(C)(C)C(=O)N[C@@H](CCC(N)=O)C(=O)N[C@@H](CC(C)C)C(=O)NC(C)(C)C(=O)N[C@@H](CCC(N)=O)C(=O)N[C@H](CO)CC(C)C (Ac-[2Nal]A[Aib][Aib]L[Aib]Q[Aib][Aib][Aib]QL[Aib]Q[Leu(ol)]) | No activity | –
CC[C@@H](C)[C@H](NC(=O)[C@H](CC(C)C)NC(=O)[C@@H](NC(=O)[C@@H](NC(=O)[C@H](C)NC(=O)[C@H](Cc1c[nH]c2ccccc12)NC(C)=O)[C@@H](C)CC)[C@H](C)CC)C(=O)N[C@@H](CCC(N)=O)C(=O)N[C@H](C(=O)N[C@H](C(=O)N[C@H](C(=O)N[C@@H](CCC(N)=O)C(=O)N[C@@H](CC(C)C)C(=O)N[C@H](C(=O)N[C@@H](CCC(N)=O)C(=O)N[C@H](CO)CC(C)C)[C@@H](C)CC)[C@H](C)CC)[C@@H](C)CC)[C@H](C)CC | No activity | No activity
CC(C)C[C@@H](CO)NC(=O)[C@H](CCC(N)=O)NC(=O)C(C)(C)NC(=O)[C@H](CC(C)C)NC(=O)[C@H](CCC(N)=O)NC(=O)C(C)(C)NC(=O)C(C)(C)NC(=O)C(C)(C)NC(=O)[C@H](CCC(N)=O)NC(=O)C(C)(C)NC(=O)[C@H](CC(C)C)NC(=O)C(C)(C)NC(=O)C(C)(C)NC(=O)[C@H](C)N (H-A[Aib][Aib]L[Aib]Q[Aib][Aib][Aib]QL[Aib]Q[Leu(ol)]) | No activity | No activity
CC(=O)N1C2CCCCC2C[C@H]1C(=O)N[C@@H](C)C(=O)NC(C)(C)C(=O)NC(C)(C)C(=O)N[C@@H](CC(C)C)C(=O)NC(C)(C)C(=O)N[C@@H](CCC(N)=O)C(=O)NC(C)(C)C(=O)NC(C)(C)C(=O)NC(C)(C)C(=O)N[C@@H](CCC(N)=O)C(=O)N[C@@H](CC(C)C)C(=O)NC(C)(C)C(=O)N[C@@H](CCC(N)=O)C(=O)N[C@H](CO)CC(C)C (some centres not stated) (Ac-[Oic(3aξ,7aξ)]A[Aib][Aib]L[Aib]Q[Aib][Aib][Aib]QL[Aib]Q[Leu(ol)]) | No activity | No activity
CC(=O)N[C@@H](C)C(=O)NC(C)(C)C(=O)NC(C)(C)C(=O)N[C@@H](CC(C)C)C(=O)NC(C)(C)C(=O)N[C@@H](CCC(N)=O)C(=O)NC(C)(C)C(=O)NC(C)(C)C(=O)NC(C)(C)C(=O)N[C@@H](CCC(N)=O)C(=O)N[C@@H](CC(C)C)C(=O)NC(C)(C)C(=O)N[C@@H](CCC(N)=O)C(=O)N[C@H](CO)CC(C)C (Ac-A[Aib][Aib]L[Aib]Q[Aib][Aib][Aib]QL[Aib]Q[Leu(ol)]) | No activity | No activity
CC(C)C[C@@H](CO)NC(=O)[C@H](CCC(N)=O)NC(=O)C(C)(C)NC(=O)[C@H](CC(C)C)NC(=O)[C@H](CCC(N)=O)NC(=O)C(C)(C)NC(=O)C(C)(C)NC(=O)C(C)(C)NC(=O)[C@H](CCC(N)=O)NC(=O)C(C)(C)NC(=O)[C@H](CC(C)C)NC(=O)C(C)(C)NC(=O)C(C)(C)NC(=O)[C@H](C)NC(=O)[C@@H](N)Cc1c[nH]c2ccccc12 (H-WA[Aib][Aib]L[Aib]Q[Aib][Aib][Aib]QL[Aib]Q[Leu(ol)]) | No activity | –
CC(=O)N[C@@H](Cc1c[nH]c2ccccc12)C(=O)N[C@@H](C)C(=O)N[C@@H](C)C(=O)N[C@@H](C)C(=O)N[C@@H](CC(C)C)C(=O)N[C@@H](C)C(=O)N[C@@H](CCC(N)=O)C(=O)N[C@@H](C)C(=O)N[C@@H](C)C(=O)N[C@@H](C)C(=O)N[C@@H](CCC(N)=O)C(=O)N[C@@H](CC(C)C)C(=O)N[C@@H](C)C(=O)N[C@@H](CCC(N)=O)C(=O)N[C@H](CO)CC(C)C (Ac-WAAALAQAAAQLAQ[Leu(ol)]) | No activity | No activity
